{"source": "patent US20030138388A1", "about": "“Peptides and the use thereof in darkening the skin” (priority 2001, published 2003)", "key": {"[1]": {"test_system": "keratinocyte-melanocyte co-cultures", "assay": "Induced pigmentation in keratinocyte-melanocyte co-cultures, DOPA staining and computerized image analysis", "format": "cell-based, Human", "experimental": "The peptides Peptide 1 and Peptide 2 and various pigments were tested, alone or in combination, with keratinocyte-melanocyte cultures for their effect on cell pigmentation, using DOPA staining and computerized image analysis. The pigments that were tested were the pigmented natural extract Hedychium spicatum extract sold as Kapur Kachali from Amsar Private Limited (Indore, India), copper chloride from Sigma (St. Louis, Mo.) and the water-soluble melanin derivatives Melasyn-100™ from San-mar laboratories, Inc. (Elmsford, N.Y.) and MelanZe™ from Zylepsis (Ashford, Kent, United Kingdom). The pigments were tested at concentrations ranging from 0.0001%(W/V) to 1%(W/V) and peptides were tested at 50 μM.\nThe assay was conducted in the following manner. Human HaCaT keratinocytes (Boukamp P., et al., J Cell Biol 106, 3, 761-771 (1988)) were maintained in Dulbecco's Modified Eagle's Medium (DMEM) containing 10% fetal bovine serum (FBS), 4.5 mg/ml glucose, 2 mM L-glutamine, 50 U/ml penicillin and 50 μg/ml streptomycin (Life Technologies, Gaithersburg, Md.). Cells were maintained at <80% confluency in 5% CO2 (v/v) and were used in experimental procedures up to culture passage 15. Human primary melanocytes (Clonetics, San Diego, Calif. or Cascade Biologics, Portland, Oreg.) were maintained according to manufacturer's instructions. To establish keratinocyte-melanocyte co-cultures, 6×10^4 melanocytes were plated in each well of a 24 well plate and maintained according to manufacturer's instructions.\nMelanocytes were rinsed three times with melanocyte growth media without PMA and keratinocytes (6×10^4) were plated to establish the co-cultures in this media. Co-cultures were treated for three days with test peptides and pigments, and assayed for cell viability and pigment level on the forth day. Cell viability was assayed using alamarBlue™ (Acumed International, West Lake, Ohio) following manufacturer's instructions. No change in viability was observed following three daily treatments with all tested material. All in vitro experiments were performed in triplicates, and were repeated at least three times.\nFollowing three daily treatments, the co-cultures were briefly fixed (10% buffered formalin from Fisher Scientific, 15 minutes), washed three times with Phosphate-buffered saline (PBS, from Life Technologies) and stained with L-3,4-Dihydroxyphenylalanine (DOPA, from Sigma, St. Louis, Mo.) 0.1% in PBS, for 5 hours at 37° C., followed by two PBS washes and formalin (10%, overnight) fixation. DOPA is a substrate for tyrosinase, therefore an increase in staining represents increased tyrosinase activity and pigment production. DOPA-stained monolayers were used for image analysis. All images were obtained and analyzed with Image Pro Plus 3.0 software (Media Cybernetics, Silver Spring, Md.). Parameters measured were surface area of stained material within melanocyte and keratinocytes and the total surface area of the cells in the culture, and the relative pigmented area was calculated. A value of 100% was assigned to untreated controls, and values of treatment groups were normalized to their relevant controls. In all experiments there was no difference between PBS-treated cells and untreated controls. Data are presented with standard deviation (SigmaPlot® 5.0, SPSS Science, Chicago, Ill.).\nForskolin (Sigma, St. Louis, Mo.), a known inducer of pigmentation, served as a positive control and a reference point. Forskolin was administered at 1% (W/V)."}, "[2]": {"test_system": "Dark skinned Yucatan microswine", "assay": "Induced pigmentation in vivo, F&M-stained histological skin sections scored for pigment deposition", "design": "key: −1: slight lightening; 0: No change; 1: Minimal increase in pigment deposition; 2: Increased pigment deposition; 3: Strong increase in pigment deposition, some increase in caps; 4: Strong increase in pigment deposition, strong increase in caps", "details": "topical twice a day, five days/week, eight or nine weeks, average of all sites of responsive swine", "experimental": "Compositions of the present invention were tested for their ability to induce in vivo pigmentation in skin cells in the following experiment. Dark skinned Yucatan microswine (Charles River, Portland, Me.) were housed in appropriately sized cages in an environmentally controlled room with a 12-hour light-12-hour dark photoperiod and supplied with food and water ad libitum. Animal care was based on the “Guide for the Care and Use of Laboratory Animals”, NIH Publication No. 85-23. Twenty μl of test peptides were applied topically, twice a day, five days/week, for eight or nine weeks, on the dorsum of the swine. Treatments of individual swine were always arranged in a head to tail order on one side, and in a tail to head order on the other side of the animal. Biopsies were taken using standard techniques.\nSections from the skin biopsies were stained with Hematoxylin and Eosin (H&E), or with Fontana-Mason (F&M), using standard procedures (Sheenan DC, Hrapckak BB, eds., Theory and Practice of Histo-technology. p. 223, 277, The C. V. Mosby Co., St. Louis (1980)). F&M staining identifies silver nitrate reducing molecules. In skin, this non-specific stain identifies primarily melanin. At least three sections per biopsy were processed. […]\nF&M-stained histological skin sections were evaluated for the change in pigment deposition within the treated site. […]"}, "[3]": {"details": "Table 1, 50 μM, three daily treatments, relative pigmented area after DOPA staining, control 0.184"}, "[4]": {"details": "Table 1, 50 μM, three daily treatments, versus control"}}, "data": [{"molecule": "[Cl][Cu][Cl]", "note": "[CuCl2, copper chloride, reference compound]", "values": [{"measurement": "Mean area", "setting": "[1]; Table 2, CuCl2 0.001% (w/v), control 0.029", "value": 0.063}, {"measurement": "% increase", "setting": "[1]; Table 2, CuCl2 0.001% (w/v), normalized to control", "value": 220, "unit": "%"}]}, {"molecule": "C=C[C@@]1(C)CC(=O)[C@]2(O)[C@@]3(C)[C@@H](O)CCC(C)(C)[C@@H]3[C@H](O)[C@H](OC(C)=O)[C@@]2(C)O1", "note": "[Forskolin, reference compound]", "values": [{"measurement": "Mean area", "setting": "[1]; Table 2, Forskolin 1% (w/v), positive control, control 0.029", "value": 0.067}, {"measurement": "% increase", "setting": "[1]; Table 2, Forskolin 1% (w/v), positive control, normalized to control", "value": 231.0, "unit": "%"}, {"measurement": "Score (pigment deposition)", "setting": "[2]; positive control at 1% (W/V)", "value": 1}]}, {"molecule": "H2-Leu-Ile-Gly-Arg-Leu-NH2 (H-LIGRL-NH2) [Peptide 2]", "values": [{"measurement": "Mean area", "setting": "[1]; [3]", "value": 0.240}, {"measurement": "% increase", "setting": "[1]; [4]", "value": 30.8, "unit": "%"}]}, {"molecule": "H2-Leu-Ile-Gly-Arg-NH2 (H-LIGR-NH2) [Peptide 1]", "values": [{"measurement": "Mean area", "setting": "[1]; [3]", "value": 0.270}, {"measurement": "% increase", "setting": "[1]; [4]", "value": 46.8, "unit": "%"}, {"measurement": "% increase", "setting": "[1]; Table 2, Peptide 1 50 μM, normalized to control", "value": 279, "unit": "%"}, {"measurement": "Mean area", "setting": "[1]; Table 2, Peptide 1 50 μM, three daily treatments, control 0.029", "value": 0.080}, {"measurement": "Score (pigment deposition)", "setting": "[2]; peptide at 250 μM or 500 μM", "value": 2}]}]}
